Assay: Metabolic stability in human liver microsomes at 1 uM in presence of NADPH regenerating system measured up to 60 mins by UFLC-MS/MS analysis
Type: ADME, Microsome
Conditions: 1 h

- Stabilty: Unstable
SMILES: COc1ccc(N(C)c2nc(C)nc3ccccc23)cc1OCC(=O)NO
